Assay results published in patent US20220233535A1, “USE OF INHIBITORS OF YAP/TAZ FOR THE TREATMENT OF CANCER” (Georgetown University, priority 2019, published 2022).
Where a name gives a salt, the structure may show the parent alone.

What was measured:
Type in all cases: cell-based
[1] = tested on: pERK (ERK phosphorylation); assay: Western blot analysis of pERK levels in SN12C cells treated with inhibitors/compounds; conditions: for pERK levels in shY/T cells: western blot; for pERK levels in shY/T cells with increasing concentrations: HCl 1 h 0-12 mM, BAPTA 3 h 0-13 μM, Baf 3 h 0-0.5 μM; for pERK levels in Ctrl cells: CaCl2 2 hours 0, 0.5, 1, 2 mM (FIG. 7K), bicarbonate (FIG. 8K)
Method: (§1) Cells were grown for 24 hours in serum-free medium in the presence of various inhibitors unless indicated otherwise. After a brief wash with cold PBS, cells were lysed in urea buffer (9.5 M urea, 2% 3-[(3-cholamidopropyl)dimethylammonio]-1-propanesulfonate (CHAPS)), adjusted to similar concentrations, mixed with 6× sodium dodecyl sulfate (SDS) loading dye, heated at 95° C. for 10 minutes, and subjected to SDS-polyacrylamide gel electrophoresis and semi-dry transferring to polyvinylidene fluoride (PVDF) membranes. For analysis of oxidative phosphorylation (OXPHOS) complexes, 2×10^7 Ctrl and shY/T cells were harvested and either saved as whole cell extract (WCE) or processed using the Mitochondria Isolation Kit for cultured cells according to the manufacturer's instructions (Thermo Fisher Scientific). The WCE and mitochondrial-enriched fraction were resuspended in radioimmunoprecipitation assay (RIPA) buffer for western blot analysis.

[2] = tested on: pAKT (AKT phosphorylation); assay: Western blot analysis of pAKT levels in SN12C cells; conditions: for pAKT levels in Ctrl cells: Ctrl SN12C cells treated overnight, western blot
Method: as §1

[3] = tested on: Ctrl and shY/T SN12C cells; assay: Lysosome inhibitor treatment of Ctrl and shY/T cells under different nutrient conditions; conditions: bafilomycin 24 hours, chloroquine 3 days, −Glc or −Gln medium
Method: Nutrient replete conditions received 11.1 mM glucose (Millipore Sigma) and 2 mM glutamine (Lonza, Benicia, Calif.) and deprivation conditions lacked or contain reduced amount of their respective nutrient as indicated. For SC4 cells, all medium in nutrient deprivation studies contained a base of DMEM without glucose or glutamine (#D5030, Millipore Sigma) and supplemented with sodium pyruvate and sodium bicarbonate to levels in standard DMEM formulation. For conditions with glucose or glutamine, 5.6 mM glucose (Millipore Sigma) and/or 4 mM glutamine (Lonza) were added. […] Percent survival was calculated based on the sequential measurements of red fluorescent protein (RFP) fluorescence (filter range 553-574 nm) at the initiation and end of treatment using the Synergy™ Hybrid Multi-Mode Microplate Reader (BioTek, Winooski, Vt.). […]
Cells were plated at optimized seeding densities to reach 60-70% confluence on the next day, at which point the media were replaced with serum-free medium containing Dox and serially diluted compounds or vehicle control. […] After incubation for indicated time, cell viability was measured using the CellTiter-Glo Luminescence Cell Viability assay (Promega) or ATPlite Luminescence Assay (Perkin Elmer) for FIG. 1B. Percent viability for each cell lines was calculated based on vehicle control.

[4] = tested on: Ctrl and shY/T SN12C cells; assay: Nutrient deprivation experiments, percent change in RFP fluorescence (proliferation and survival); conditions: 3 days; for proliferation under nutrient-replete conditions: Ctrl and shY/T SN12C; for proliferation under nutrient-replete conditions / Glc- and Gln-starvation-induced cell death in shY/T cells: GSH 0.3 mM or EGF 1 μg/ml; for Glc- and Gln-starvation-induced cell death in shY/T cells: shY/T SN12C
Method: For SN12C cells, all medium in nutrient deprivation studies contained a base of RPMI salt mix (0.42 mM Ca(NO3)2.4H2O, 0.41 mM MgSO4, 5.4 mM KCl, 23.8 mM NaHCO3, 102.7 mM NaCl, and 5.6 mM Na2HPO4), RPMI 1640 vitamins solution (Millipore Sigma, St. Louis, Mo.), MEM amino acids solution (ThermoFisher Scientific), and MEM non-essential amino acids solution (Sigma). Nutrient replete conditions received 11.1 mM glucose (Millipore Sigma) and 2 mM glutamine (Lonza, Benicia, Calif.) and deprivation conditions lacked or contain reduced amount of their respective nutrient as indicated. For SC4 cells, all medium in nutrient deprivation studies contained a base of DMEM without glucose or glutamine (#D5030, Millipore Sigma) and supplemented with sodium pyruvate and sodium bicarbonate to levels in standard DMEM formulation. For conditions with glucose or glutamine, 5.6 mM glucose (Millipore Sigma) and/or 4 mM glutamine (Lonza) were added. Reduced cellular glutathione (GSH) (Alfa Aesar, Haverhill, Mass.) and epidermal growth factor (EGF) (Millipore Sigma) were used at final concentrations of 0.3 mM and 1 μg/ml, respectively. Percent survival was calculated based on the sequential measurements of red fluorescent protein (RFP) fluorescence (filter range 553-574 nm) at the initiation and end of treatment using the Synergy™ Hybrid Multi-Mode Microplate Reader (BioTek, Winooski, Vt.). A one-way ANOVA with Sidak's multiple comparison test was used to calculate significance for all nutrient deprivation experiments.

[5] = tested on: shY/T SN12C cells; assay: Intracellular calcium assay; conditions: shY/T SN12C grown overnight with 0 or 0.3 μM bafilomycin
Method: Cells were grown for indicated time in serum-free medium, washed with ice-cold PBS, collected in 100 mM Tris pH 7.5 buffer using cell scraper, and processed using the Calcium Assay Kit (Cayman Chemicals) according to the manufacturer's instructions. The calcium concentrations were normalized to the protein concentrations determined using Bradford Protein Assay (Bio-Rad).

[6] = tested on: shY/T SN12C cells; assay: Media pH measurements; conditions: shY/T SN12C grown overnight with 0 or 0.3 μM bafilomycin
Method: Cells were plated at the same time with optimized seeding densities that ensure all cell lines to reach 80% confluence at the time of measurement. Medium supernatant was collected and measured using the Thermo Scientific™ Orion™ 3-Star Benchtop pH Meter after calibration.

[7] = shY/T SN12C cells treated overnight

In the case of `CN=c1nc(-c2ccccc2)n(-c2ccccc2)s1` [SCH 202676], the “pERK levels in shY/T cells” value [1, 7] is reported as “none of the GPCR inhibitors reduced ERK phosphorylation”.

With `Cl.c1ccc(C2CCCC2NC2=NCCCCCCCCCCC2)cc1` (centres unmarked) [MDL 12330A] the “ERK phosphorylation, tmAC activator/inhibitor alone or in combination” value ([1]; overnight, FIG. 8K) was “no effect on ERK phosphorylation”.

In the case of `CC(C)NCC(O)c1ccc(NS(C)(=O)=O)cc1` (centres unmarked) [Sotalol], the “pERK levels in shY/T cells” value [1, 7] is reported as “none of the GPCR inhibitors reduced ERK phosphorylation”.

In the case of `Cl` [HCl], the “pERK levels in shY/T cells with increasing concentrations” value ([1]; shY/T SN12C) is reported as “reduced pERK levels in a dose-dependent manner”.

For `Nc1ncnc2c1ncn2[C@@H]1O[C@@H]2COP(O)(=S)O[C@H]2[C@H]1O` (some centres unmarked) [Rp-cAMP], the “pAKT levels in Ctrl cells” value [2] was “without affecting pAKT” and the “pERK levels in shY/T cells” value [1, 7] was “specifically inhibited ERK phosphorylation”.

With `CCN(CC)CCCC(C)Nc1ccnc2cc(Cl)ccc12` (centres unmarked) [chloroquine] the “sensitivity of NF2-mutant cells to lysosomal inhibition upon YAP/TAZ depletion” value [3] was “increased the sensitivity of NF2-mutant cells to lysosomal inhibition, especially under nutrient-deprived conditions”.

`[Ca+2].[Cl-].[Cl-]` [calcium, CaCl2] was tested, and the “pERK levels in Ctrl cells” value ([1]; Ctrl cells) was “increased pERK levels”.

In the case of `O=C(O)O` [Bicarbonate, NaHCO3], the “pERK levels in Ctrl cells” value ([1]; Ctrl cells) is reported as “raised pERK levels”.

With `CNc1ncc2cc(-c3cc(NC(=O)NCCC(C)(C)C)c(F)cc3C)c(C)nc2n1` [LY3009120] the “pAKT levels in Ctrl cells” value [2] was “did not reduce pAKT levels” and the “pERK levels in shY/T cells” value [1, 7] was “inhibited pERK levels”.

For `O=C(O)CN(CC(=O)O)c1ccccc1OCCOc1ccccc1N(CC(=O)O)CC(=O)O` [BAPTA], the “pERK levels in shY/T cells with increasing concentrations” value ([1]; shY/T SN12C) was “reduced pERK levels in a dose-dependent manner”.

`N[C@@H](CCC(=O)N[C@@H](CS)C(=O)NCC(=O)O)C(=O)O` [GSH, glutathione] was tested, and the “Glc- and Gln-starvation-induced cell death in Ctrl cells” value ([4]; Ctrl SN12C, −Glc or −Gln, GSH 0.3 mM) was “had no effect”, the “proliferation under nutrient-replete conditions” value [4] was “did not affect the proliferation” and the “Glc- and Gln-starvation-induced cell death in shY/T cells” value ([4]; −Glc or −Gln) was “significantly inhibited”.

`CC(Sc1nc2ccccc2[nH]1)C(=O)N/N=C/c1cc(Br)ccc1O` (centres unmarked) [KH7] was tested, and the “pAKT levels in Ctrl cells” value [2] was “not pAKT”, the “bicarbonate-raised pERK levels in Ctrl cells” value ([1]; Ctrl cells, bicarbonate plus KH7, FIG. 8K) was “blocked by KH7” and the “pERK levels in shY/T cells” value [1, 7] was “drastically inhibited pERK levels”.

`CO/C1=C\C(C)=C\[C@@H](C)[C@@H](O)[C@@H](C)C/C(C)=C/C=C/[C@H](OC)[C@@H]([C@@H](C)[C@@H](O)[C@H](C)[C@@]2(O)C[C@@H](O)[C@H](C)[C@@H](C(C)C)O2)OC1=O` [bafilomycin] was tested, and the “sensitivity of NF2-mutant cells to lysosomal inhibition upon YAP/TAZ depletion” value [3] was “increased the sensitivity of NF2-mutant cells to lysosomal inhibition, especially under nutrient-deprived conditions”, the “bafilomycin-mediated ERK inhibition with exogenous HCO3−” value ([1]; shY/T SN12C, 3 h, 0.3 μM Baf and/or 25 mM NaHCO3) was “rescued by the addition of exogenous HCO3^−” and the “pERK levels in shY/T cells with increasing concentrations” value ([1]; shY/T SN12C) was “inhibited ERK phosphorylation in a dose-dependent manner”. For the same compound, the intracellular calcium concentration [5] was “significantly reduced pH and calcium levels” and the “media pH” value [6] was “significantly reduced pH”.

In the case of `COc1ccc2cc(-c3cc(-c4cc(C(F)(F)F)ccc4F)nn3[C@@H](C)c3ccc(C(=O)NCCC(=O)O)cc3)ccc2c1` [GRA-1], the “pERK levels in shY/T cells” value [1, 7] is reported as “none of the GPCR inhibitors reduced ERK phosphorylation”.

With `CNC(=O)c1cc(Oc2ccc(NC(=O)Nc3ccc(Cl)c(C(F)(F)F)c3)cc2)ccn1` [Sorafenib] the “pAKT levels in Ctrl cells” value [2] was “did not reduce pAKT levels” and the “pERK levels in shY/T cells” value [1, 7] was “inhibited pERK levels”.

“EGF: epidermal growth factor (NSDSECPLSHDGYCLHDGVCMYIEALDKYACNCVVGYIGERCQYRDLKWWELR; Epidermal growth factor; UniProt P01133 971-1023, looked up)” was tested, and the “AKT phosphorylation in shY/T cells” value ([2]; shY/T SN12C cells after addition of EGF) was “partially rescued AKT phosphorylation”, the “proliferation under nutrient-replete conditions” value [4] was “allowed shY/T cells to regain the ability to proliferate” and the “Glc- and Gln-starvation-induced cell death in shY/T cells” value ([4]; −Glc or −Gln) was “did not prevent cell death”.

In the case of `O=S(=O)(NCCNC/C=C/c1ccc(Br)cc1)c1cccc2cnccc12` [H-89], the “pAKT levels in Ctrl cells” value [2] is reported as “without also blocking pAKT”, the “pERK levels in shY/T cells, combination of PKA inhibitor H-89 and EPAC inhibitor HJC” value ([1]; shY/T SN12C cells treated overnight, FIG. 8E) is reported as “synergizes with EPAC inhibitor HJC in reducing pERK levels” and the “pERK levels in shY/T cells” value [1, 7] is reported as “specifically inhibited ERK phosphorylation”.
